The target of assay [1] is T1, Gamma-aminobutyric acid receptor subunit rho-2 (Homo sapiens, UniProt P28476). Description: Full agonist activity against human rho-2 subunit GABA-C receptor expressed in Xenopus oocytes. Format: functional, cell-based, Oocyte.
In assay [2] the target is T2, Gamma-aminobutyric acid receptor subunit rho-1 (Homo sapiens, UniProt P24046). Kind of assay: Full agonist activity against human rho-1 subunit GABA-C receptor expressed in Xenopus oocytes. The class given is functional, cell-based, Oocyte.
Assay [3] deals with T1, Gamma-aminobutyric acid receptor subunit rho-2. Kind of assay: Partial agonist activity with low efficacy against rho-2 subunit GABA-C receptor expressed in Xenopus oocytes. Format: functional, cell-based, Oocyte.
For assay [4], the target named is T2, Gamma-aminobutyric acid receptor subunit rho-1. Description: Partial agonist activity against rho-1 subunit GABA-C receptor expressed in Xenopus oocytes with low efficacy. The class given is functional, cell-based, Oocyte.
Assay [5] has the same target. Kind of assay: Partial agonist activity against rho-1 subunit GABA-C receptor expressed in Xenopus oocytes. Format: functional, cell-based, Oocyte.
Assay [6] shares this target. Description: Partial agonist activity against human rho1 subunit GABA-C receptor expressed in Xenopus oocytes. Format: functional, cell-based, Oocyte.
The target in assay [7] is T1, Gamma-aminobutyric acid receptor subunit rho-2. Kind of assay: Partial agonist activity against human rho-2 subunit GABA-C receptor expressed in Xenopus oocytes. Format: functional, cell-based, Oocyte.
Assay [8] addresses T2, Gamma-aminobutyric acid receptor subunit rho-1. Description: Partial agonist activity against human rho-1 subunit GABA-C receptor expressed in Xenopus oocytes. The class given is functional, cell-based, Oocyte.
The target of assay [9] is GABA-A receptor; anion channel. Description: Antagonist activity against Gamma-aminobutyric acid A (GABA-A) receptor. Format: functional, Rattus norvegicus.
The target in assay [10] is GABA-A receptor; anion channel. Kind of assay: Affinity against recombinant Gamma-aminobutyric acid A (GABA-A) receptor. The class given is protein-complex assay.
For assay [11], the target named is GABA-A receptor; anion channel. Description: Non-competitive antagonist activity against Gamma-aminobutyric acid A (GABA-A) receptor. The class given is functional, Rattus norvegicus.
Assay [12] concerns the target GABA-C receptor (Homo sapiens, UniProt A8MPY1+P24046+P28476). Kind of assay: Agonist activity against Gamma-aminobutyric acid type C (GABA-C) receptor derived from bovine retinal RNA expressed in Xenopus oocytes. The class given is functional, cell-based, Bos taurus, Oocyte.
Assay [13] addresses T1, Gamma-aminobutyric acid receptor subunit rho-2. Kind of assay: Partial agonist activity against homomeric rho-2 subunit GABA-C receptor expressed in Xenopus oocytes. The class given is functional, cell-based, Oocyte.
Assay [14] has the same target. Kind of assay: Partial agonist activity against rho-2 subunit GABA-C receptor expressed in Xenopus oocytes, higher intrinsic activity (Im 38%). The class given is functional, cell-based, Oocyte.
Assay [15] has as its target GABA-C receptor (Homo sapiens) (UniProt P28476+A8MPY1+P24046). Description: Antagonist activity against rho subunit Gamma-aminobutyric acid C (GABA-C) receptor expressed in Xenopus oocytes. The class given is functional, cell-based. The following applies: Oocyte.
Assay [16] concerns the target T2, Gamma-aminobutyric acid receptor subunit rho-1. Kind of assay: Partial agonist activity against rho-1 subunit GABA-C receptor expressed in Xenopus oocytes, low intrinsic activity (Im 3%). Format: functional, cell-based, Oocyte.
Assay [17] concerns the target GABA-A receptor; anion channel. Kind of assay: Potent antagonist activity against Gamma-aminobutyric acid A (GABA-A) receptor from rat cortex RNA expressed in Xenopus oocytes. The following applies: oocyte. Format: functional, cell-based.
Assay [18] has as its target GABA-A receptor; anion channel. Description: Inhibitory activity against Gamma-aminobutyric acid A (GABA-A) receptor from rat cultured cortical neuron RNA expressed in Xenopus oocytes. The class given is functional, cell-based. The following applies: oocyte.
Assay [19] has as its target T1, Gamma-aminobutyric acid receptor subunit rho-2. Kind of assay: Activation of human rho2 GABA-C receptor at 34% of maximal GABA-induced response.
The target of assay [20] is T2, Gamma-aminobutyric acid receptor subunit rho-1. Description: Antagonist activity against rho-1 subunit GABA-C receptor expressed in Xenopus oocytes. The following applies: Oocyte. The class given is functional, cell-based.
Assay [21] concerns the target GABA-A receptor; anion channel. Description: Competitive antagonist activity against Gamma-aminobutyric acid A (GABA-A) receptor. Format: functional.

SMILES strings stand for the structures.

T1 sequence (P28476 whole entry): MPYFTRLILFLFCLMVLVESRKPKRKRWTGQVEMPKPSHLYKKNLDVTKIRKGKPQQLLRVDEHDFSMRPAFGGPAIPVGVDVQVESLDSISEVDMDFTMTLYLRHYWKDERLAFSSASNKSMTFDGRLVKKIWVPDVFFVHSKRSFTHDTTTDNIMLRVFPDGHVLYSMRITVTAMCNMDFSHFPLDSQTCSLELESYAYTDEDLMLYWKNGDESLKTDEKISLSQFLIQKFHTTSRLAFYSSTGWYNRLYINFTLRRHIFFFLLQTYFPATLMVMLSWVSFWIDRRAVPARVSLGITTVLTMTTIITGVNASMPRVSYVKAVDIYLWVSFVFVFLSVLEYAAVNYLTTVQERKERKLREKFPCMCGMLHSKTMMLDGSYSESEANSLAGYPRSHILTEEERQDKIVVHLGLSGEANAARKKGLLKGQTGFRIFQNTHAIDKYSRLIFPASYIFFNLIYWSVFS
T2 sequence (P24046 whole entry): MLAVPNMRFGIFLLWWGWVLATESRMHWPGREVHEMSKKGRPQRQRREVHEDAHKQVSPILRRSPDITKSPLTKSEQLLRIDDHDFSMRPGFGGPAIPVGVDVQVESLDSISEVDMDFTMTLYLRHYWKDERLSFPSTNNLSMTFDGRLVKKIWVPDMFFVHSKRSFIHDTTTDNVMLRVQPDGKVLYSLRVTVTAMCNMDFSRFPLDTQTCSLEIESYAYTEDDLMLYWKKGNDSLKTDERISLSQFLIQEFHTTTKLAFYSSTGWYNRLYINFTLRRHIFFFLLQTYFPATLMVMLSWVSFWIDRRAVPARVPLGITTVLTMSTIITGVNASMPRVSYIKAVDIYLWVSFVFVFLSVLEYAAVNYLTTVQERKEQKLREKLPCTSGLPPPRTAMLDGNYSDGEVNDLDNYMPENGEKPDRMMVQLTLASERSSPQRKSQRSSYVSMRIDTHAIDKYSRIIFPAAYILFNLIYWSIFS
Sequence of GABA-C receptor (P28476 whole entry): as the sequence (P28476 whole entry) above
Sequence of GABA-C receptor (A8MPY1 whole entry): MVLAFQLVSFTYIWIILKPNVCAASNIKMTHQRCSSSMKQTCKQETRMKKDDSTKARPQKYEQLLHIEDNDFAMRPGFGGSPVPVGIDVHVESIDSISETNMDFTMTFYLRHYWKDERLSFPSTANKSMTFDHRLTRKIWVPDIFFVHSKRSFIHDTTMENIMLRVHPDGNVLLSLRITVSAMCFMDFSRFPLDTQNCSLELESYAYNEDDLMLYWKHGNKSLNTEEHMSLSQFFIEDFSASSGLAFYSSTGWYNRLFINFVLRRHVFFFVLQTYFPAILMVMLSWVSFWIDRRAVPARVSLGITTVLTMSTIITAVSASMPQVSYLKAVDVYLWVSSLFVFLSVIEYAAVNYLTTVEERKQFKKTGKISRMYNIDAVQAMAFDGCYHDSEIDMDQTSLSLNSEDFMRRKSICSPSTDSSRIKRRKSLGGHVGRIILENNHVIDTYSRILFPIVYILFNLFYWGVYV
Sequence of GABA-C receptor (P24046 whole entry): as the sequence (P24046 whole entry) above
Sequence of GABA-C receptor (Homo sapiens) (A8MPY1 whole entry, looked up): as the sequence (A8MPY1 whole entry) above
Sequence of GABA-C receptor (Homo sapiens) (P24046 whole entry, looked up): as the sequence (P24046 whole entry) above
Sequence of GABA-C receptor (Homo sapiens) (P28476 whole entry, looked up): as the sequence (P28476 whole entry) above

`NC[C@@H]1C[C@@H]1C(=O)O` (relative stereo): the EC50 in assay [1] is 34.5 µM; in assay [2] it was 68 µM; in [3] it was 17.5 µM; in assay [4], 20 µM.

In the case of `NC/C=C(\F)C(=O)O`, in assay [5], the EC50 turned out to be 2.43 µM. As to `NCCCS(=O)O` [HOMOHYPOTAURINE], the EC50 in assay [6] is 4.6 µM. This lies in the single-digit micromolar range. Take `NCc1cc(=O)[nH]o1` [MUSCIMOL]: the Kd was determined as 1.4 µM in assay [7] and 2.3 µM in [8].

`Cc1ccc2c(c1)c1c3n2CCNC3CCC1` (centres undefined) [PIRLINDOLE] had an EC50 in [9] of 12 µM. This lies in the double-digit micromolar range. In the case of `COC(=O)[C@H]1[C@@H](OC(=O)c2ccccc2)C[C@@H]2CC[C@H]1N2C` [COCAINE], in assay [10], the IC50 was found to be 127 µM. In turn, `Cc1nccn1CC1CCc2c(c3ccccc3n2C)C1=O` (centres undefined) [ONDANSETRON] gave an IC50 in assay [11] of 10 µM. Turning to `NC/C=C/C(=O)O` [t-4-AMINOCROTONIC ACID (TACA)], in [12], binding was put at a Kd of 0.6 µM. The compound further came in with an EC50 in assay [13] of 0.4 µM. For the compound `O=c1cc(-c2cccc([N+](=O)[O-])c2)oc2cccc(Br)c12`, in assay [10], the Ki is 0.03 µM.

In the case of `O=C(O)Cc1c[nH]cn1` [IMIDAZOLE ACETIC ACID], the 50% effective concentration (EC50) in [14] is 3 µM; in assay [16], 16 µM. The compound also gave a Kb in assay [15] of 1.5 µM. `O=S(=O)(O)C1CCNCC1` gave a Kd in [17] of 104 µM.

For the compound `CCCCCCCC/C=C\CCCCCCCC(N)=O` [OLEAMIDE], the EC50 in [18] came out at 15 µM. As for `C/C(=C\CN)C(=O)O`, in [19], the midpoint of the response, the EC50, lay at 101 µM. Moreover, the Kb in [20] came out at 45 µM. Consider `c1ccc2c(NCCCCCCCNc3c4c(nc5ccccc35)CCCC4)c3c(nc2c1)CCCC3`, for which the IC50 in [21] came out at 6 µM.

With `NC/C=C\C(=O)O`, the results for the EC50 in assay [7] and in assay [6] were 70 µM and 74 µM, respectively.

These data come from ChEMBL document CHEMBL1133003, “GABA-Activated ligand gated ion channels: medicinal chemistry and molecular biology” (J Med Chem, 2000).
